Reference: patent US9708336B2, “Metallo-beta-lactamase inhibitors” (priority 2014, dated 2017)
Where two headings read alike, the source gives them in different places.

How the values were obtained:
NDM-1 = NDM-1 (Klebsiella pneumoniae, UniProt C7C422); assay: biochemical; type: biochemical; details: read-out: NDM-1 IC50
IMP-1 = IMP-1 (Serratia marcescens, UniProt P52699); assay: biochemical; type: biochemical; details: read-out: IMP-1 IC50
VIM-1 = VIM-1 (Pseudomonas aeruginosa (strain ATCC 15692 / DSM 22644 / CIP 104116 / JCM 14847 / LMG 12228 / 1C / PRS 101 / PAO1), UniProt A0A0F7KYQ8); assay: Enzyme activity: determination of IC50, fluorescence assay with CCF2-FA substrate (VIM-1); type: biochemical; details: read-out: VIM-1 IC50
[1] = test system: Escherichia coli expressing NDM-1 (CLB30005); assay: Antibiotic potentiation activity: synergistic concentration (MITC95) with imipenem, OD600 growth; type: cell-based; details: for Escherichia coli expressing NDM-1 (CLB 30005) MITC95: concentration giving 95% inhibition of bacterial growth; for Escherichia coli MITC95: Escherichia coli expressing NDM-1 (CLB30005), 95% growth inhibition
Procedure, shortened: (§1)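 Clinical MBL-producing strains (E. coli NDM-1, S. marcescens IMP-1, K. pneumoniae VIM-1) from overnight plates were diluted 1:100 into 1.1×CAMHB. Compound was tested with imipenem at 4 μg/ml (optionally 1 μg/ml) or without it. After 22–24 h at 35 °C, growth was read as OD600.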

[2] = test system: Klebsiella pneumoniae expressing VIM-1 (IHMA599644); assay: as above; type: cell-based; details: for Klebsiella pneumoniae expressing VIM-1 (IHMA 599644) MITC95: concentration giving 95% inhibition of bacterial growth; for Klebsiella pneumoniae MITC95: Klebsiella pneumoniae expressing VIM-1 (IHMA599644), 95% growth inhibition
Procedure, shortened: as §1

[3] = test system: Serratia marcescens expressing IMP-1 (CL5741); assay: as above; type: cell-based; details: for Serratia marcescens expressing IMP-1 (CL5741) MITC95: concentration giving 95% inhibition of bacterial growth; for Serratia marcescens MITC95: Serratia marcescens expressing IMP-1 (CL5741), 95% growth inhibition
Procedure, shortened: as §1

[4] = fluorescence assay with CCF2-FA substrate
[5] = NDM-1 enzyme, CCF2-FA fluorescence assay
[6] = IMP-1 enzyme, CCF2-FA fluorescence assay
[7] = VIM-1 enzyme, CCF2-FA fluorescence assay

Chain of IMP-1 (P52699 whole entry, looked up): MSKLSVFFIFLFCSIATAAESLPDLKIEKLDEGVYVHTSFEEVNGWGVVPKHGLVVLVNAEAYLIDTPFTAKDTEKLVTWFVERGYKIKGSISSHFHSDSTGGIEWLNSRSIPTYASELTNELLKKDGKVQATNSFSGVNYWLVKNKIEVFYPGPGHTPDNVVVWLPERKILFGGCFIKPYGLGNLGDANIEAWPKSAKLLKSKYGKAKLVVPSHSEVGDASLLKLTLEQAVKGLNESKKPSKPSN
Chain of NDM-1 (C7C422 whole entry, looked up, species assumed): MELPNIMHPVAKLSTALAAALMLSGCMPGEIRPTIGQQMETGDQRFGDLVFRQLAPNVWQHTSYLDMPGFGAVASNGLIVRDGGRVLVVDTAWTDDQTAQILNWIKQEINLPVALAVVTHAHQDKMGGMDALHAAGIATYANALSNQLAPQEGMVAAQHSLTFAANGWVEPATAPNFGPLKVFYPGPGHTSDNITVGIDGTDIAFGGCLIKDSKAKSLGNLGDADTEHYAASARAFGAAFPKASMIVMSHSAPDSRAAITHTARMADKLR

CS(=O)(=O)Nc1cccc(-c2cccc(S(N)(=O)=O)c2-c2nn[nH]n2)c1 [Example 86, 3′-[(methylsulfonyl)amino]-2-(2H-tetrazol-5-yl)biphenyl-3-sulfonamide]
IC50 (NDM-1; [4]): 11 nM | IC50 (IMP-1; [4]): 67.4 nM | IC50 (VIM-1; [4]): 1070 nM | Escherichia coli expressing NDM-1 (CLB 30005) MITC95 [1]: 0.7813 µM | Klebsiella pneumoniae expressing VIM-1 (IHMA 599644) MITC95 [2]: 200 µM | Serratia marcescens expressing IMP-1 (CL5741) MITC95 [3]: 3.125 µM

NS(=O)(=O)c1nccc(-c2ccc3[nH]ncc3c2)c1-c1nn[nH]n1 [Example 199, 4-(1H-indazol-5-yl)-3-(2H-tetrazol-5-yl)pyridine-2 sulfonamide]
IC50 (NDM-1; [4]): 13 nM | IC50 (IMP-1; [4]): 325 nM | IC50 (VIM-1; [4]): 24.8 nM | Escherichia coli expressing NDM-1 (CLB 30005) MITC95 [1]: 0.3906 µM | Klebsiella pneumoniae expressing VIM-1 (IHMA 599644) MITC95 [2]: 3.125 µM | Serratia marcescens expressing IMP-1 (CL5741) MITC95 [3]: 6.25 µM

CN(C)S(=O)(=O)c1ccc(-c2cccc(S(N)(=O)=O)c2-c2nn[nH]n2)cc1 [Example 59, N~4~′,N~4~′-dimethyl-2-(2H-tetrazol-5-yl)biphenyl-3,4′-disulfonamide]
IC50 (NDM-1; [4]): 4.38 nM | IC50 (IMP-1; [4]): 36.1 nM | IC50 (VIM-1; [4]): 95 nM | Escherichia coli expressing NDM-1 (CLB 30005) MITC95 [1]: 2.344 µM | Klebsiella pneumoniae expressing VIM-1 (IHMA 599644) MITC95 [2]: 200 µM | Serratia marcescens expressing IMP-1 (CL5741) MITC95 [3]: 6.25 µM

NS(=O)(=O)c1nncc(-c2ccc(Br)cc2)c1-c1nn[nH]n1 [Example 277, 5-(4-Bromophenyl)-4-(2H-tetrazol-5-yl)pyridazine-3-sulfonamide]
IC50 (NDM-1; [5]): 296 nM | IC50 (IMP-1; [6]): 5270 nM | IC50 (VIM-1; [7]): 1230 nM | Escherichia coli MITC95 [1]: 12.5 µM | Klebsiella pneumoniae MITC95 [2]: >200 µM | Serratia marcescens MITC95 [3]: 125 µM

CCNC(=O)N1CCC(c2cccc(S(N)(=O)=O)c2-c2nn[nH]n2)CC1 [Example 174, N-ethyl-4-(3-sulfamoyl-2-(2H-tetrazol-5-yl)phenyl)piperidine-1-carboxamide]
IC50 (NDM-1; [4]): 4.54 nM | IC50 (IMP-1; [4]): 403 nM | IC50 (VIM-1; [4]): 262 nM | Escherichia coli expressing NDM-1 (CLB 30005) MITC95 [1]: 2.344 µM | Klebsiella pneumoniae expressing VIM-1 (IHMA 599644) MITC95 [2]: 100 µM | Serratia marcescens expressing IMP-1 (CL5741) MITC95 [3]: 12.5 µM

NS(=O)(=O)c1cccc(-c2csc3ccccc23)c1-c1nn[nH]n1 [Example 96, 3-(1-benzothiophen-3-yl)-2-(2H-tetrazol-5-yl)benzenesulfonamide]
IC50 (NDM-1; [4]): 1.31 nM | IC50 (IMP-1; [4]): 109 nM | IC50 (VIM-1; [4]): 3.55 nM | Escherichia coli expressing NDM-1 (CLB 30005) MITC95 [1]: 1.758 µM | Klebsiella pneumoniae expressing VIM-1 (IHMA 599644) MITC95 [2]: 25 µM | Serratia marcescens expressing IMP-1 (CL5741) MITC95 [3]: 15.63 µM

NC(=O)c1cccc(-c2cccc(S(N)(=O)=O)c2-c2nn[nH]n2)c1 [Example 81, 3′-sulfamoyl-2′-(2H-tetrazol-5-yl)biphenyl-3-carboxamide]
IC50 (NDM-1; [4]): 34.6 nM | IC50 (IMP-1; [4]): 571 nM | IC50 (VIM-1; [4]): 255 nM | Escherichia coli expressing NDM-1 (CLB 30005) MITC95 [1]: 0.9766 µM | Klebsiella pneumoniae expressing VIM-1 (IHMA 599644) MITC95 [2]: 37.5 µM | Serratia marcescens expressing IMP-1 (CL5741) MITC95 [3]: 37.5 µM

COc1ncc(-c2cccc(S(N)(=O)=O)c2-c2nn[nH]n2)cn1 [Example 91, 3-(2-methoxypyrimidin-5-yl)-2-(2H-tetrazol-5-yl)benzenesulfonamide]
IC50 (NDM-1; [4]): 27.5 nM | IC50 (IMP-1; [4]): 830 nM | IC50 (VIM-1; [4]): 180 nM | Escherichia coli expressing NDM-1 (CLB 30005) MITC95 [1]: 0.7813 µM | Klebsiella pneumoniae expressing VIM-1 (IHMA 599644) MITC95 [2]: 75 µM | Serratia marcescens expressing IMP-1 (CL5741) MITC95 [3]: 50 µM

NS(=O)(=O)c1cc(Cl)cc(-c2ccc3c(c2)C(=O)NC3)c1-c1nn[nH]n1 [Example 289, 5-Chloro-3-(3-oxo-2,3-dihydro-1H-isoindol-5-yl)-2-(2H-tetrazol-5-yl)benzenesulfonamide]
IC50 (NDM-1; [5]): 13.5 nM | IC50 (IMP-1; [6]): 121 nM | IC50 (VIM-1; [7]): 452 nM | Escherichia coli MITC95 [1]: 3.125 µM | Klebsiella pneumoniae MITC95 [2]: >200 µM | Serratia marcescens MITC95 [3]: 31.25 µM

Cn1nnc2ccc(-c3cccc(S(N)(=O)=O)c3-c3nn[nH]n3)cc21 [Example 67, 3-(1-methyl-1H-benzotriazol-6-yl)-2-(2H-tetrazol-5-yl)benzenesulfonamide]
IC50 (NDM-1; [4]): 2.16 nM | IC50 (IMP-1; [4]): 911 nM | IC50 (VIM-1; [4]): 57 nM | Escherichia coli expressing NDM-1 (CLB 30005) MITC95 [1]: 2.344 µM | Klebsiella pneumoniae expressing VIM-1 (IHMA 599644) MITC95 [2]: 62.5 µM | Serratia marcescens expressing IMP-1 (CL5741) MITC95 [3]: 75 µM
